In patent publication US9115092B2, “Substituted quinazoline and pyrido-pyrimidine derivatives” (Asana Biosciences, LLC, priority 2010, dated 2015) one finds IC50 data, which are given here for six compounds.

One assay deals with PC3 cells. Briefly: XTT assay for cell viability, PC3 cells. The assay is classed as cell-based, human. The settings on record: Homo sapiens, PC-3, cell viability. An outline of the steps: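 PC3 cells seeded at 1000 cells/well, grown 24 h, then exposed to serial dilutions of compound for 96 h. Viability read by XTT dye at 37° C, absorbance 465 nm. EC50 from sigmoidal dose-response fit.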

The target in assay [1] is T1, PI3Kα (wild-type), P110/P85α (Homo sapiens, UniProt P42336).
T1 construct: made in house; host or cells: SF9 insect cells
T1 sequence (P42336 whole entry): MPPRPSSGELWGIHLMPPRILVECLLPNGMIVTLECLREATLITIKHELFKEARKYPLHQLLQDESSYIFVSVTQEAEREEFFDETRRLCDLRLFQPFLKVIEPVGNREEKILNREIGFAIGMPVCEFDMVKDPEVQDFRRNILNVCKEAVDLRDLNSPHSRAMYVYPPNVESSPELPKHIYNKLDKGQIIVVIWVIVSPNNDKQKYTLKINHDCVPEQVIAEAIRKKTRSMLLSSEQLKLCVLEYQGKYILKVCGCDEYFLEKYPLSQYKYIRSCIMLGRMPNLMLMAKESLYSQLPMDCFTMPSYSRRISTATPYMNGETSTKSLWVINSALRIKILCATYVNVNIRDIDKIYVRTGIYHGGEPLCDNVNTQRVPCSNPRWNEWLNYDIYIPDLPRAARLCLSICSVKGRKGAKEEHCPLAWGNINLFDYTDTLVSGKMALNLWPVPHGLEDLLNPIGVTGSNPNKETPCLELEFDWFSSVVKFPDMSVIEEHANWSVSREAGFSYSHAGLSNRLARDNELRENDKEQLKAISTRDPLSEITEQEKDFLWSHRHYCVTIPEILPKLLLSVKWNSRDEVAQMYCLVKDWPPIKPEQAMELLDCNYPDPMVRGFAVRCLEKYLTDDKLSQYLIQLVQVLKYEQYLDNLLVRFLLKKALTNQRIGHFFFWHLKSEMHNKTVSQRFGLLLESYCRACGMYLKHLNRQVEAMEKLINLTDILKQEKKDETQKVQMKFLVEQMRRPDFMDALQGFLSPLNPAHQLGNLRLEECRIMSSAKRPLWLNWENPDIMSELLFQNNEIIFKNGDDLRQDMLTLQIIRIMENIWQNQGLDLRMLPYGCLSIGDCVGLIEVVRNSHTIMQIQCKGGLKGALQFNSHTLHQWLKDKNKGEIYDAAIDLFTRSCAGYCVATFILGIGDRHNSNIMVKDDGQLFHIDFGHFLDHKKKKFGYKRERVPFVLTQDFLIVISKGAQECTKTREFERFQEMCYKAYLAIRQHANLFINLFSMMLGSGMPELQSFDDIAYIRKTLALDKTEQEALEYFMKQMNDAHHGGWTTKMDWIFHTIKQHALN
T1 sequence (P27986 whole entry partner): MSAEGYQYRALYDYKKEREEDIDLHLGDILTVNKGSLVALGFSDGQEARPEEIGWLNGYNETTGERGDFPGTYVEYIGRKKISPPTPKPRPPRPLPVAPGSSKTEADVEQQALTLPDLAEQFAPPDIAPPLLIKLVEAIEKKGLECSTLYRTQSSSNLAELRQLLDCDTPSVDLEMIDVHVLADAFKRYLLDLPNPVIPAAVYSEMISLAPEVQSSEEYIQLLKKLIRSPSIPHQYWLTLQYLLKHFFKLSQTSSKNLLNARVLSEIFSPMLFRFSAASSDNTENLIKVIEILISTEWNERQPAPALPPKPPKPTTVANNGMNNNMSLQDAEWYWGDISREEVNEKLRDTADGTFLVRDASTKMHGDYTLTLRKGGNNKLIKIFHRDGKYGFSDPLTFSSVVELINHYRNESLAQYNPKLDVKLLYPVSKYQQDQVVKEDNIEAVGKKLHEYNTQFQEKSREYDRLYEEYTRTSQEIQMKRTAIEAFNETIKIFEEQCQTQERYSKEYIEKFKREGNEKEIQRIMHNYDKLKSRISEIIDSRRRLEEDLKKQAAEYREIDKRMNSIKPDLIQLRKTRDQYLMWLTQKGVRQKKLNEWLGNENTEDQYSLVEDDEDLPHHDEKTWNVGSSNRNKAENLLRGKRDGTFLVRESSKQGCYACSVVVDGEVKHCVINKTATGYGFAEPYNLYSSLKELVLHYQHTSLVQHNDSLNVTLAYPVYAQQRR
Briefly: PI3 Kinase TR-FRET assay, PI3Kα (wild-type). It counts as biochemical. The method, boiled down:
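Sf9-expressed His-purified P110/P85α (5 ng) preincubated 60 min RT with compound and PIP2 in buffer with 40 mM MgCl2, 5 mM DTT; reaction started with ATP (PIP2 and ATP both 10 μM), 30 min RT. PIP3 detected by TR-FRET displacement, 665/615 nm ratio; IC50 from dose-response curves.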
(Time-resolved FRET reads energy transfer from a long-lived donor to a nearby acceptor.)

Assay [2] relates to pAKT(T308) (phosphorylated at threonine 308), PC3 cells. Briefly: In-cell Western assay, pAKT(T308) in PC3 cells. It counts as cell-based. Conditions: Homo sapiens, PC-3, In-cell Western. The method, boiled down:
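Overnight-seeded PC3 cells were treated 2 h with serially diluted compound, then fixed and immunostained with phospho-specific primary antibodies and Eu-labelled secondary. Time-resolved Eu signal read at 615 nm (ex 340 nm), normalised by Hoechst 33258 staining (ex 355/em 460 nm); IC50 from sigmoidal dose-response fit.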

Another assay concerns the target T2, mTOR kinase (Homo sapiens, UniProt P42345).
T2 construct: purchased Millipore, USA
Nature of the assay: mTOR kinase TR-FRET assay. Conditions: read-out: mTO R. It counts as biochemical. An outline of the steps: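 Compounds preincubated 60 min with mTOR (5 ng) in HEPES pH 7.5, EGTA, MnCl2; ULight-p70 S6K Thr389 peptide (50 nM) and ATP (20 μM) then added, 60 min at room temperature. EDTA-stopped, Eu-anti-phospho antibody detection by TR-FRET (665/615 nm); IC50 from variable-slope sigmoidal fit.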

Structures are written as SMILES.

As for `CN(C)C(=O)c1ccc(NC(=O)Nc2ccc(-c3nc(N4CCOCC4)c4ccc(-c5cncnc5)cc4n3)cc2)cc1` [Example 1, N,N-Dimethyl-4-(3-{4-[4-morpholin-4-yl-7-pyrimidin-5-yl-quinazolin-2-yl)-phenyl]-ureido}-benzamide], the IC50 in the assay on PC3 cells was 100 to 500 nM; in assay [1], less than 50 nM; in assay [2], 501 to 5000 nM; on mTOR kinase, less than 50 nM.
`Cc1ccc(-c2ccc3c(N4CCOCC4)nc(-c4ccc(NC(=O)Nc5ccc(C(=O)N(C)C)cc5)cc4)nc3c2)o1` [Example 2, N,N-Dimethyl-4-(3-{4-[7-(5-methyl-furan-2-yl)-4-morpholin-4-yl-quinazolin-2-yl]-phenyl}-ureido)-benzamide]: the IC50 with PC3 cells was less than 100 nM; in assay [1], less than 50 nM; in assay [2], 100 to 500 nM; at mTOR kinase, less than 50 nM.
On to `CN(C)C(=O)c1ccc(NC(=O)Nc2ccc(-c3nc(N4CCOCC4)c4ccc(-c5ccco5)cc4n3)cc2)cc1` [Example 51, 4-{3-[4-(7-furan-2-yl-4-morpholin-4-yl-quinazolin-2-yl)-phenyl]-ureido}-N,N-dimethyl-benzamide], for which the figures for the IC50 (in the assay with PC3 cells; in assay [1]; on mTOR kinase) were 100 to 500 nM, less than 50 nM and less than 50 nM, respectively.
For `CN(C)C(=O)c1ccc(NC(=O)Nc2ccc(-c3nc(N4CCOCC4)c4ccc(-c5cncnc5)cc4n3)cc2)c(F)c1` [Example 133, 3-fluoro-N,N-dimethyl-4-(3-(4-(4-morpholino-7-(pyrimidin-5-yl)quinazolin-2-yl)phenyl)ureido)-benzamide], the IC50 in the assay on PC3 cells was 201 to 10000 nM; in assay [1], less than 50 nM; in assay [2], less than 100 nM; on mTOR kinase, less than 50 nM.
As to `CN(C)C(=O)c1ccc(NC(=O)Nc2ccc(-c3nc(N4CCOCC4)c4ccc(-c5cccnc5F)cc4n3)cc2)c(F)c1` [Example 146, 3-fluoro-4-(3-(4-(7-(2-fluoropyridin-3-yl)-4-morpholino-quinazolin-2-yl)phenyl)ureido)-N,N-dimethyl-benzamide], the IC50 in the assay with PC3 cells was 201 to 10000 nM; in assay [1], 50 to 200 nM; in assay [2], less than 100 nM; on mTOR kinase, less than 50 nM.
Taken in the same sequence, the figures for `CN(C)C(=O)c1ccc(NC(=O)Nc2ccc(-c3nc(N4CCOCC4)c4ccc(-c5cccnc5)cc4n3)cc2)c(F)c1` [Example 152, 3-fluoro-N,N-dimethyl-4-(3-(4-(4-morpholino-7-(pyridin-3-yl)quinazolin-2-yl)phenyl)ureido)-benzamide] were less than 100 nM, less than 50 nM, less than 100 nM and less than 50 nM.
